Laboratory results taken from US6432682B1, “Substances KF-1040 and process for producing of the same” (The Kitasato Institute, priority 2000, dated 2002).
Converted amounts (≈) assume the structure as drawn.

Assays:
[1] = molecular target: T1, acid sphingomyelinase originated from human placenta (Homo sapiens, UniProt P17405); experiment: Influence on human placenta-originated acid sphingomyelinase; type: biochemical; conditions: human placenta enzyme (Sigma), pH 5.0, 37° C., 30 minutes; read-out: concentration corresponding to 50% inhibition of acid sphingomyelinase (converted)
T1 construct: an acid sphingomyelinase originated from human placenta (a product of the firm Sigma) was used as the enzyme source; purchased Sigma; host or cells: human placenta
T1 sequence (P17405 47-631): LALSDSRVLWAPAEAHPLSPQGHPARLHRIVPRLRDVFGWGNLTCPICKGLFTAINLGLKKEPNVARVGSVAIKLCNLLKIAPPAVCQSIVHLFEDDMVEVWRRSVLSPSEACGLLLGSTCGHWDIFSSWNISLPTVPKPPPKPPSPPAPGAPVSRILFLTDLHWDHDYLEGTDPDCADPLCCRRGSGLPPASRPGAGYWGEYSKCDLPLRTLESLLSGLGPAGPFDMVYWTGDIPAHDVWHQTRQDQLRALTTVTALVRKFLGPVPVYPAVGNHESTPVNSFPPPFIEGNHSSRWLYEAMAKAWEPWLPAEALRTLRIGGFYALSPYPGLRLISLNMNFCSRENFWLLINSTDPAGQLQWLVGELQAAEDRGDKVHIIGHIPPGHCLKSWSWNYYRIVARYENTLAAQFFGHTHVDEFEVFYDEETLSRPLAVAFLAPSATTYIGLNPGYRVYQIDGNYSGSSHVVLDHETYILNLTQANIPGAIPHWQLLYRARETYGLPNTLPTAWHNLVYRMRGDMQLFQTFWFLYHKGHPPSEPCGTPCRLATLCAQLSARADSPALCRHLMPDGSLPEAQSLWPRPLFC
Description: The assessment of influence of the substances on human placenta-originated acidic sphingomyelinase was performed in accordance with the method of Jones et al [Biochem. Journal, 195, 373-382 (1981)] with partial modification.
Thus, an acid sphingomyelinase originated from human placenta (a product of the firm Sigma) was used as the enzyme source and thereto were added 250 mM of sodium acetate buffer solution (pH 5.0), 0.1% of NP-40 (of the firm Sigma), 25 μM [N-methyl-^3H]-sphingomyelin (0.006 μCi) and various concentrations of the substance, and the mixture was filled up to a total volume of 50 μl. After the reaction at 37° C. for 30 minutes, 200 μl of chloroform/methanol mixture (1/2 volume ratio) was added to the reaction mixture to separate the reaction product [^3H]-phosphocholine from the starting material [^3H]-sphingomyelin. The supernatant layer was taken up into a 50 μl vial. The amount of [^3H]-phosphocholine was quantitatively determined by a liquid scintillation counter to estimate the acid sphingomyelinase activity.

[2] = molecular target: diacylglycerol:acyltransferase; experiment: Inhibitory action to rat-originated diacylglycerol:acyltransferase (rat liver microsomal fraction); type: biochemical; conditions: 23° C., 15 minutes
Description: The activity of diacylglycerol:acyltransferase was determined by the modified method of Mayorek and Bar-Tana [J. Biol. Chem., 260, 6528-6532 (1985)].
Thus, a microsomal fraction prepared from rat liver was used as the enzyme source. To a 175 mM Tris-HCl buffer (pH 8.0) containing 8 mM of MgCl2, 1 mg/ml of bovine, serum albumin and 2.5 mM of diisopropyl fluorophosphate, there were added 0.75 mM of dioleoylglycerol and 30 μM of [1-^14C]-palmitoyl-CoA (0.02 μCi) and the total volume was adjusted to 200 μl, whereupon the enzymatic reaction mixture was incubated at 23° C. for 15 minutes. The total lipids were extracted with chloroform/methanol mixture and each lipid was separated by a TLC (with Kieselgel GF254 and a developer of petroleum ether/diethyl ether/acetic acid of 80/20/1), followed by determination of the radioactivity of the triacylglycerol fraction using RADIOSCANNER (of the firm AMBIS System Inc.) to determine the diacylglycerol:acyltransferase activity.

[3] = tested on: triacylglycerol formation in Raji cell originated from human Burkitt lymphoma; experiment: Inhibitory action to formation of triacylglycerol in human-originated cells (Raji cell); type: cell-based; conditions: 0.5 h, [1-14C]-oleic acid, 37° C., 30 minutes, read-out: drug concentration corresponding to 50% inhibition of triacylglycerol formation
Description: The assessment of influence of the substances on the triacylglycerol formation was performed in accordance with the method of Tomoda et al [J. Biol. Chem., 266, 4214-4219 (1991)] using human-originated cells (Raji cell originated from human Burkitt lymphoma).
A Raji cell dispersion of 2.7×10^6 cells per milliliter containing 0.36 nM [1-^14C]-oleic acid (0.02 μCi) in the presence or absence of the; substance was filled up to a total volume 200 μl, whereupon the reaction was caused at 37° C. for 30 minutes. The total lipids were extracted with chloroform/methanol (2/1) mixture. The subsequent procedures were carried out in the same manner as in the above experiment (1) “inhibitive action to rat-originated diacylglycerol-acyltransferase”.
The calculation of the drug concentration corresponding to 50% inhibition of triacylglycerol formation gives the values of 10 μg/ml for the KF-1040 substance A and 10 μg/ml for the KF-1040 substance B.

[4] = Acidic or alkaline nature; type: physicochemical
Solubility in solvents = type: physicochemical; conditions: in methanol, benzene, chloroform and ethyl acetate

IC50 [1]	drug concentration corresponding to 50% inhibition of diacylglycerol:acyltransferase [2]	IC50 [3]	Acidic or alkaline nature [4]	Solubility in solvents (Solubility in solvents)	SMILES
61.8 µM	16 µg/mL	10 µg/mL (≈ 12.9 µM)	neutral	solule in methanol, benzene, chloroform	CCC(C)CC(C)CC(C)C(OC1OC(CO)C(O)C(O)C1O)C(C)C=C(C)C(O)C(C)C=C(C)C(O)C(C)C=C(C)C(=O)OCC(O)C(O)C(O)CO (stereo not shown) [KF-1040 substance A]
29.3 µM	9.0 µg/mL	10 µg/mL (≈ 12.2 µM)	neutral	soluble in methanol, benzene, chloroform	CCC(C)CC(C)CC(C)C(OC1OC(COC(C)=O)C(O)C(O)C1O)C(C)C=C(C)C(O)C(C)C=C(C)C(O)C(C)C=C(C)C(=O)OCC(O)C(O)C(O)CO (stereo not shown) [KF-1040 substance B]
